Assay results as given in US11000033B2, “Ketone or oxime compound, and herbicide” (NISSAN CHEMICAL CORPORATION, priority 2014, dated 2021).

Experiments:
Format in all cases: in vivo
[1] = tested on: wheat; assay: Test Example 5: effect on crop by foliage application, plastic box (symbol e); details: 320 g/ha, 3 weeks after application
In short: (§1)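 Foliage-application test plants come from spot sowing in sterilized diluvial soil under a soil layer of about 1.5 cm, grown at 25° C. to 30° C. in a greenhouse.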

[2] = tested on: Alopecurus myosuroides; assay: Test Example 5: herbicidal effect by foliage application, plastic box (symbol J); details: 320 g/ha, 3 weeks after application
In short: (§2)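 Seeds were sown in sterilized diluvial soil, covered with about 1.5 cm of soil and grown 14 days in a greenhouse at 25° C. to 30° C. An emulsifiable formulation diluted in water to a set rate was sprayed over foliage, and injury was scored 3 weeks later.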

[3] = tested on: corn; assay: Test Example 5: effect on crop by foliage application, plastic box (symbol c); details: 320 g/ha, 3 weeks after application
In short: as §1

[4] = tested on: Chenopodium album; assay: Test Example 5: herbicidal effect by foliage application, plastic box (symbol O); details: 320 g/ha, 3 weeks after application
In short: as §2

[5] = tested on: beet; assay: Test Example 5: effect on crop by foliage application, plastic box (symbol f); details: 320 g/ha, 3 weeks after application
In short: as §1

[6] = tested on: rice plant; assay: Test Example 5: effect on crop by foliage application, plastic box (symbol b); details: 320 g/ha, 3 weeks after application
In short: as §1

[7] = tested on: Amaranthus retroflexus; assay: Test Example 4: herbicidal effect by soil treatment (symbol N)
In short: (§3)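 Seeds were sown in sterilized diluvial soil, covered with about 1.5 cm of soil, and the soil surface was sprayed with a water-diluted emulsion of the compound at a predetermined rate. Plants grew in a greenhouse at 25° C. to 30° C.; effects were scored visually 3 weeks after application.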

[8] = tested on: Leptochloa chinensis; assay: Test Example 3: herbicidal effect by foliage application, Wagner pot (symbol D); details: application herbicide amount 320 g/ha
In short: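 In a shallow-flooded alluvial soil system held at 25–30 °C, plants including rice grew for 14 days and were then sprayed over the foliage with emulsion diluted to a fixed herbicide amount. Visual rating followed at 3 weeks.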

[9] = tested on: Echinochloa oryzacola Vasing.; assay: Test Example 2: herbicidal activity, application during weed generation in submerged conditions (symbol A); details: Table 23; application herbicide amount 320 g/ha; grade 0-5 by criteria of Test Example 1
In short: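 Compound was applied as a water-diluted emulsion into the standing water of flooded pots (4 cm) once co-sown weeds reached one to two leaves. Greenhouse temperature was 25° C. to 30° C., soil was alluvial, and each species was rated visually after 3 weeks.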

[10] = tested on: wheat; assay: Test Example 4: effect on crop by soil treatment (symbol e); details: for e: wheat, effect grade on crop: 320 g/ha; for e: wheat, effect on crop grade: application herbicide amount 320 g/ha
In short: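 Grown at 25° C. to 30° C. in a greenhouse, the crops came from seed sown spot-wise in sterilized diluvial soil under roughly 1.5 cm of covering soil.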

[11] = tested on: Setaria viridis; assay: Test Example 5: herbicidal effect by foliage application, plastic box (symbol G); details: 320 g/ha, 3 weeks after application
In short: as §2

[12] = tested on: Setaria viridis; assay: Test Example 4: herbicidal effect by soil treatment (symbol G)
In short: as §3

[13] = application herbicide amount 320 g/ha

| SMILES | N: Amaranthus retroflexus, herbicidal effect grade ([7]; 320 g/ha) | herbicidal effect on D (Leptochloa chinensis), grade 0-5 [8] | Herbicidal effect grade, A: Echinochloa oryzacola Vasing. [9] | e: wheat, effect grade on crop [10] | G: Setaria viridis, herbicidal effect grade ([12]; 320 g/ha) | e: wheat, effect on crop grade [1] | J: Alopecurus myosuroides, herbicidal effect grade [2] | c: corn, effect on crop grade [3] | O: Chenopodium album, herbicidal effect grade [4] | f: beet, effect on crop grade [5] | b: directly sowed rice plant, effect on crop grade [6] | N: Amaranthus retroflexus, herbicidal effect grade [7, 13] | e: wheat, effect on crop grade [10] | G: Setaria viridis, herbicidal effect grade [11] | G: Setaria viridis, herbicidal effect grade [12, 13] | other results |
| --- | --- | --- | --- | --- | --- | --- | --- | --- | --- | --- | --- | --- | --- | --- | --- | --- |
| CON=C(C)CC1CC(OC(=O)c2ccccc2C(F)(F)F)=C(c2c(C)cc(C)cc2C)C1=O (stereo not drawn) [1-154] | 4 (Herbicidal ratio of 70% or higher and lower than 90%) | 5 (Herbicidal ratio of 90% or more (almost completely withered)) | 5 (Herbicidal ratio of 90% or more (almost completely withered)) | 3 (Herbicidal ratio of 40% or higher and lower than 70%) | 5 (Herbicidal ratio of 90% or more (almost completely withered)) | – | – | – | – | – | – | – | – | – | – | e: wheat, effect on crop (criteria 0-5) [1]: 5 (Herbicidal ratio of 90% or more (almost completely withered)); J: Alopecurus myosuroides, herbicidal effect (criteria 0-5) [2]: 5 (Herbicidal ratio of 90% or more (almost completely withered)); c: corn, effect on crop (criteria 0-5) [3]: 3 (Herbicidal ratio of 40% or higher and lower than 70%); O: Chenopodium album, herbicidal effect (criteria 0-5) [4]: 1 (Herbicidal ratio of 5% or higher and lower than 20%); f: beet, effect on crop (criteria 0-5) [5]: 1 (Herbicidal ratio of 5% or higher and lower than 20%); b: directly sowed rice plant, effect on crop (criteria 0-5) [6]: 5 (Herbicidal ratio of 90% or more (almost completely withered)); G: Setaria viridis, herbicidal effect (criteria 0-5) [11]: 5 (Herbicidal ratio of 90% or more (almost completely withered)) |
| CCc1cc(-n2cc(Cl)cn2)cc(C)c1C1=C(O)CC(CC(C)=NOC)C1=O (mixture of isomers) [6-005] | – | 5 (Herbicidal ratio of 90% or more (almost completely withered)) | 5 (Herbicidal ratio of 90% or more (almost completely withered)) | – | – | 4 (Herbicidal ratio of 70% or higher and lower than 90%) | 5 (Herbicidal ratio of 90% or more (almost completely withered)) | 5 (Herbicidal ratio of 90% or more (almost completely withered)) | 3 (Herbicidal ratio of 40% or higher and lower than 70%) | 0 (Herbicidal ratio of 5% or lower (almost no effect)) | 5 (Herbicidal ratio of 90% or more (almost completely withered)) | 0 (Herbicidal ratio of 5% or lower (almost no effect)) | 4 (Herbicidal ratio of 70% or higher and lower than 90%) | 5 (Herbicidal ratio of 90% or more (almost completely withered)) | 5 (Herbicidal ratio of 90% or more (almost completely withered)) | – |
| CON=C(C)CC1CC(OC(=O)c2ccc(S(C)(=O)=O)c(C(=O)OC)c2Cl)=C(c2c(C)cc(C)cc2C)C1=O (stereo not drawn) [1-162] | 4 (Herbicidal ratio of 70% or higher and lower than 90%) | 5 (Herbicidal ratio of 90% or more (almost completely withered)) | 5 (Herbicidal ratio of 90% or more (almost completely withered)) | 4 (Herbicidal ratio of 70% or higher and lower than 90%) | 5 (Herbicidal ratio of 90% or more (almost completely withered)) | 5 (Herbicidal ratio of 90% or more (almost completely withered)) | 5 (Herbicidal ratio of 90% or more (almost completely withered)) | 4 (Herbicidal ratio of 70% or higher and lower than 90%) | 4 (Herbicidal ratio of 70% or higher and lower than 90%) | 3 (Herbicidal ratio of 40% or higher and lower than 70%) | 5 (Herbicidal ratio of 90% or more (almost completely withered)) | – | – | 5 (Herbicidal ratio of 90% or more (almost completely withered)) | – | – |
| Cc1cc(C)c(C2=C(O)CC(CC(=O)C3CCCC3)C2=O)c(C)c1 (stereo not drawn) [2-028] | – | 5 (Herbicidal ratio of 90% or more (almost completely withered)) | 3 (Herbicidal ratio of 40% or higher and lower than 70%) | – | – | 0 (Herbicidal ratio of 5% or lower (almost no effect)) | 4 (Herbicidal ratio of 70% or higher and lower than 90%) | 4 (Herbicidal ratio of 70% or higher and lower than 90%) | 0 (Herbicidal ratio of 5% or lower (almost no effect)) | 0 (Herbicidal ratio of 5% or lower (almost no effect)) | 5 (Herbicidal ratio of 90% or more (almost completely withered)) | 0 (Herbicidal ratio of 5% or lower (almost no effect)) | 0 (Herbicidal ratio of 5% or lower (almost no effect)) | 5 (Herbicidal ratio of 90% or more (almost completely withered)) | 5 (Herbicidal ratio of 90% or more (almost completely withered)) | – |
| CC#Cc1cc(C)c(C2=C(O)CC(CC(C)=NOC)C2=O)c(C)c1 (mixture of isomers) [6-009] | – | 5 (Herbicidal ratio of 90% or more (almost completely withered)) | 3 (Herbicidal ratio of 40% or higher and lower than 70%) | – | – | 5 (Herbicidal ratio of 90% or more (almost completely withered)) | 5 (Herbicidal ratio of 90% or more (almost completely withered)) | 5 (Herbicidal ratio of 90% or more (almost completely withered)) | 2 (Herbicidal ratio of 20% or higher and lower than 40%) | 2 (Herbicidal ratio of 20% or higher and lower than 40%) | 5 (Herbicidal ratio of 90% or more (almost completely withered)) | 5 (Herbicidal ratio of 90% or more (almost completely withered)) | 5 (Herbicidal ratio of 90% or more (almost completely withered)) | 5 (Herbicidal ratio of 90% or more (almost completely withered)) | 5 (Herbicidal ratio of 90% or more (almost completely withered)) | – |
